Read-outs that look alike come from different tables or passages of the source.
Tests used:
[1] = target: smooth muscle angiotensin II receptor; assay: Assay A: Angiotensin II Binding Activity (displacement of 125I-angiotensin II, rat uterine membrane preparation); details: 50% displacement of specifically bound 125I-AII, rat uterine membranes, 25° C., 60 min, pH 7.5
Protocol: Assay A: Angiotensin II Binding Activity
Compounds of the invention were tested for ability to bind to the smooth muscle angiotensin II receptor using a rat uterine membrane preparation. Angiotensin II (AII) was purchased from Peninsula Labs. ^125 I-angiotensin II (specific activity of 2200 Ci/mmol) was purchased from Du Pont-New England Nuclear. Other chemicals were obtained from Sigma Chemical Co. This assay was carried out according to the method of Douglas et al [Endocrinology, 106, 120-124 (1980)]. Rat uterine membranes were prepared from fresh tissue. All procedures were carried out at 4° C. Uteri were stripped of fat and homogenized in phosphate-buffered saline at pH 7.4 containing 5 mM EDTA. The homogenate was centrifuged at 1500×g for 20 min., and the supernatant was recentrifuged at 100,000×g for 60 min. The pellet was resuspended in buffer consisting of 2 mM EDTA and 50 mM Tris-HCl (pH 7.5) to a final protein concentration of 4 mg/ml. Assay tubes were charged with 0.25 ml of a solution containing 5 mM MgCl2, 2 mM EDTA, 0.5% bovine serum albumin, 50 mM Tris-HCl, pH 7.5 and ^125 I-AII (approximately 10^5 cpm) in the absence or in the presence of unlabelled ligand. The reaction was initiated by the addition of membrane protein and the mixture was incubated at 25° C. for 60 min. The incubation was terminated with ice-cold 50 mM Tris-HCl (pH 7.5) and the mixture was filtered to separate membrane-bound labeled peptide from the free ligand. The incubation tube and filter were washed with ice-cold buffer. Filters were assayed for radioactivity in a Micromedic gamma counter. Nonspecific binding was defined as binding in the presence of 10 μM of unlabelled AII. Specific binding was calculated as total binding minus nonspecific binding. The receptor binding affinity of an AII antagonist compound was indicated by the concentration (IC50) of the tested AII antagonist which gives 50% displacement of the total specifically bound ^125 I-AII from the high affinity AII receptor. Binding data were analyzed by a nonlinear least-squares curve fitting program.

[2] = target: T1, rabbit aortic rings (angiotensin II contraction) (Oryctolagus cuniculus, UniProt P34976); assay: Assay B: In Vitro Vascular Smooth Muscle Response for AII (rabbit aortic rings); type: cell-based, rabbit (male New Zealand white); details: rabbit aorta rings, antagonist 10^-5 M for 5 min, 37° C., read-out: Assay B pA2 (converted)
T1 construct: The thoracic aorta was removed, cleaned of adherent fat and connective tissue and then cut into 3-mm ring segments; from tissue; host or cells: rabbit thoracic aorta rings, endothelium removed
T1 sequence (P34976 1-359): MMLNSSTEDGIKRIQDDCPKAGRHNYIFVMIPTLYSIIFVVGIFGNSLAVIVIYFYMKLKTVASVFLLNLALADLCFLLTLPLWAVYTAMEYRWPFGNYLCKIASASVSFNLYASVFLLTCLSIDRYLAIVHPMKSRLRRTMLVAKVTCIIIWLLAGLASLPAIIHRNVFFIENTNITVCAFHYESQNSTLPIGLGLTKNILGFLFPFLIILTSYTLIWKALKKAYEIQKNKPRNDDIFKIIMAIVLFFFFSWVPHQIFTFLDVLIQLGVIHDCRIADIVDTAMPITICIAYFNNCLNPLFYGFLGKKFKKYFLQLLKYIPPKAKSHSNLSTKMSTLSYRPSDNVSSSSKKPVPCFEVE
Protocol: Assay B: In Vitro Vascular Smooth Muscle-Response for AII
The compounds of the invention were tested for antagonist activity in rabbit aortic rings. Male New Zealand white rabbits (2-2.5 kg) were sacrificed using an overdose of pentobarbital and exsanguinated via the carotid arteries. The thoracic aorta was removed, cleaned of adherent fat and connective tissue and then cut into 3-mm ring segments. The endothelium was removed from the rings by gently sliding a rolled-up piece of filter paper into the vessel lumen. The rings were then mounted in a water-jacketed tissue bath, maintained at 37° C., between moveable and fixed ends of a stainless steel wire with the moveable end attached to an FT03 Grass transducer coupled to a Model 7D Grass Polygraph for recording isometric force responses. The bath was filled with 20 ml of oxygenated (95% oxygen/5% carbon dioxide) Krebs solution of the following composition (mM): 130 NaCl, 15 NaHCO3, […], 1.2 NaH2 PO4, 1.2 MgSO4, 2.5 CaCl2, and 11.4 glucose. The preparations were equilibrated for one hour before approximately one gram of passive tension was placed on the rings. Angiotensin II concentration-response curves were then recorded (3×10^-10 to 1×10^-5 M). Each concentration of AII was allowed to elicit its maximal contraction, and then AII was washed out repeatedly for 30 minutes before rechallenging with a higher concentration of AII. Aorta rings were exposed to the test antagonist at 10^-5 M for 5 minutes before challenging with AII. Adjacent segments of the same aorta ring were used for all concentration-response curves in the presence or absence of the test antagonist. The effectiveness of the test compound was expressed in terms of pA2 values and were calculated according to H. O. Schild [Br. J. Pharmacol. Chemother., 2, 189-206 (1947)]. The pA2 value is the concentration of the antagonist which increases the IC50 value for AII by a factor of two. Each test antagonist was evaluated in aorta rings from two rabbits.

[3] = first of two values in the cell (rings from two rabbits)
[4] = second of two values in the cell (rings from two rabbits)

Row | IC50 [1] | Kb [2, 3] | Kb [2, 4] | Compound
1 | 23 nM | 100 nM | 138 nM | CCCCc1ncc2n1[C@@H](c1ccc(-c3ccccc3-c3nn[nH]n3)cc1)CC[C@H]2O (relative stereo) [Example 13, 3-Butyl-5,6,7,8-tetrahydro-5-[2'-(1H-tetrazol-5-yl)[1,1'-biphenyl]-4-yl]imidazo[1,5-a]pyridin-cis-8-ol]
2 | 120 nM | 331 nM | 550 nM | CCCCc1ncc2n1[C@@H](c1ccc(-c3ccccc3-c3nn[nH]n3)cc1)CC[C@@H]2O (relative stereo) [Example 14, 3-Butyl-5,6,7,8-tetrahydro-5-[2'-(1H-tetrazol-5-yl)[1,1'-biphenyl]-4-yl]imidazo[1,5-a]pyridin-trans-8-ol]
3 | 67 nM | 70.8 nM | 141 nM | CCCCc1ncc2n1[C@@H](c1ccc(-c3ccccc3-c3nn[nH]n3)cc1)CC[C@H]2CC(=O)OC(C)(C)C (relative stereo) [Example 19, 1,1-Dimethylethyl 3-butyl-5,6,7,8-tetrahydro-5-[2'-(1H-tetrazol-5-yl)[1,1'-biphenyl]-4-yl]imidazo[1,5-a]pyridin-cis-8-acetate]
4 | 240 nM | 129 nM | 141 nM | CCCCc1ncc2n1[C@@H](c1ccc(-c3ccccc3-c3nn[nH]n3)cc1)CC[C@H]2CC(=O)O (relative stereo) [Example 20, 3-Butyl-5,6,7,8-tetrahydro-5-[2'-(1H-tetrazol-5-yl)[1,1'-biphenyl]-4-yl]imidazo[1,5-a]pyridin-cis-8-acetic acid]
5 | 36 nM |  |  | CCCCc1ncc2n1[C@H](c1ccc(-c3ccccc3-c3nnn[nH]3)cc1)CC[C@@H]2OCc1ccccc1 (relative stereo) [Example 24, 3-Butyl-5,6,7,8-tetrahydro-5-[2'-(1H-tetrazol-5-yl)[1,1'-biphenyl]-4-yl]-cis-8-phenylmethoxy-imidazo[1,5-a]pyridine]
6 | 190 nM | 398 nM | 537 nM | CCCCc1nc(CCCC)n2c1C=CCC2c1ccc(-c2ccccc2-c2nnn[nH]2)cc1 (stereo not shown) [Example 1, 1,3-Dibutyl-5,6-dihydro-5-[2'-(1H-tetrazol-5-yl)[1,1'-biphenyl]-4-yl]imidazo[1,5-a]pyridine]
7 | 2100 nM | 1450 nM | 263 nM | CCCCc1nc(CCCC)n2c1C=C(Br)CC2c1ccc(-c2ccccc2-c2nnn[nH]2)cc1 (stereo not shown) [Example 2, 7-Bromo-1,3-dibutyl-5,6-dihydro-5-[2'-(1H-tetrazol-5-yl)[1,1'-biphenyl]-4-yl]imidazo[1,5-a]pyridine]
8 | 270 nM | 53.7 nM | 224 nM | CCCCc1nc(CCCC)n2c1CCCC2c1ccc(-c2ccccc2-c2nnn[nH]2)cc1 (stereo not shown) [Example 3, 1,3-Dibutyl-5,6,7,8-tetrahydro-5-[2'-(1H-tetrazol-5-yl)[1,1'-biphenyl]-4-yl]imidazo[1,5-a]pyridine]
9 | 51 nM | 22.4 nM | 14.5 nM | CCCCc1nc(CCCC)n2c1C(O)CCC2c1ccc(-c2ccccc2-c2nnn[nH]2)cc1 (stereo not shown) [Example 4, 1,3-Dibutyl-5,6,7,8-tetrahydro-5-[2'-(1H-tetrazol-5-yl)[1,1'-biphenyl]-4-yl]imidazo[1,5-a]pyridin-8-ol]
10 | 60 nM | 13.8 nM | 7.08 nM | CCCCc1nc(CCCC)n2c1C(=O)CCC2c1ccc(-c2ccccc2-c2nn[nH]n2)cc1 (stereo not shown) [Example 5, 1,3-Dibutyl-5,6-dihydro-5-[2'-(1H-tetrazol-5-yl)[1,1'-biphenyl]-4-yl]imidazo[1,5-a]pyridin-8(5H)-one]
11 | 2800 nM |  |  | CCCCc1nc(CCCC)n2c1C(c1ccccc1)=CCC2c1ccc(-c2ccccc2-c2nnn[nH]2)cc1 (stereo not shown) [Example 6, 1,3-Dibutyl-5,6-dihydro-8-phenyl-5-[2'-(1H-tetrazol-5-yl)[1,1'-biphenyl]-4-yl]imidazo[1,5-a]pyridine]
12 | 15000 nM |  |  | CCCCc1nc(CCCC)n2c1C(=CC(=O)O)CCC2c1ccc(-c2ccccc2-c2nnn[nH]2)cc1 (stereo not shown) [Example 7, [1,3-Dibutyl-6,7-dihydro-5-[2'-(1H-tetrazol-5-yl)[1,1'-biphenyl]-4-yl]imidazo[1,5-a]pyridin-8(5H)-ylidene]acetic acid]
13 | 27 nM |  |  | CCCCc1nc(CCCC)n2c1C(N1C(=O)CCC1=O)CCC2c1ccc(-c2ccccc2-c2nnn[nH]2)cc1 (stereo not shown) [Example 8, 1-[1,3-Dibutyl-5,6,7,8-tetrahydro-5-[2'-(1H-tetrazol-5-yl)[1,1'-biphenyl]-4-yl]imidazo[1,5-a]pyridin-8-yl]-2,5-pyrrolidinedione]
14 | 44 nM | 70.8 nM | 57.5 nM | CCCCc1nc(CCCC)n2c1C(NC(=O)CCC(=O)NN)CCC2c1ccc(-c2ccccc2-c2nn[nH]n2)cc1 (stereo not shown) [Example 9]
15 | 330 nM |  |  | CCCCc1nc(CCCC)n2c1C=CCCC2c1ccc(-c2ccccc2-c2nnn[nH]2)cc1 (stereo not shown) [Example 10, 1,3-Dibutyl-6,7-dihydro-5-[2'-(1H-tetrazol-5-yl)[1,1'-biphenyl]-4-yl]-5H-imidazo[1,5-a]azepine]
16 | 120 nM |  |  | CCCCc1ncc2n1C(c1ccc(-c3ccccc3-c3nnn[nH]3)cc1)CC=C2 (stereo not shown) [Example 11, 3-Butyl-5,6-dihydro-5-[2'-(1H-tetrazol-5-yl)[1,1'-biphenyl]-4-yl]imidazo[1,5-a]pyridine]
17 | 110 nM | 219 nM | 89.1 nM | CCCCc1ncc2n1C(c1ccc(-c3ccccc3-c3nn[nH]n3)cc1)CCC2=O (stereo not shown) [Example 12, 3-Butyl-5,6-dihydro-5-[2'-(1H-tetrazol-5-yl)[1,1'-biphenyl]-4-yl]imidazo[1,5-a]pyridin-8(5H)-one]
18 | 160 nM | 347 nM | 186 nM | CCCCc1ncc2n1C(c1ccc(-c3ccccc3-c3nnn[nH]3)cc1)CCC2=CC(=O)OC(C)(C)C (stereo not shown) [Example 15, 1,1-Dimethylethyl [3-butyl-6,7-dihydro-5-[2'-(1H-tetrazol-5-yl)[1,1'-biphenyl]-4-yl]imidazo[1,5-a]pyridin-8(5H)-ylidene]acetate]
19 | 440 nM | 7.76 nM | 16.2 nM | CCCCc1ncc2n1C(c1ccc(-c3ccccc3-c3nnn[nH]3)cc1)CCC2=CC(=O)O (stereo not shown) [Example 16, [3-Butyl-6,7-dihydro-5-[2'-(1H-tetrazol-5-yl)[1,1'-biphenyl]-4-yl]imidazo[1,5-a]pyridin-8(5H)-ylidene]acetic acid]
20 | 200 nM |  |  | CCCCc1ncc2n1C(c1ccc(-c3ccccc3-c3nnn[nH]3)cc1)CC=C2CC(=O)O (stereo not shown) [Example 18, 3-Butyl-5,6-dihydro-5-[2'-(1H-tetrazol-5-yl)[1,1'-biphenyl]-4-yl]imidazo[1,5-a]pyridin-8-acetic acid]

From patent publication US5674879A, “Compositions including and methods of using conformationally restricted angiotensin II antagonist” (G.D. Searle & Co., priority 1995, dated 1997)
